Measured values reported in PubChem BioAssay AID248 (DTP/NCI, 2004).
Values joined by “and” are separate entries in the source; they are usually repeats but may differ in a detail not shown here. Identical values can stand only once. Inconclusive results and toxic doses are left out. Rule as the data show it: active = T/C of 150% or more; inactive = T/C below 125%.

System: L1210 leukemia ip in BDF1 mice, survival T/C
Test: NCI In Vivo Anticancer Drug Screen. Data for tumor model L1210 Leukemia (intraperitoneal) in B6D2F1 (BDF1) mice
Details: endpoint: mean survival time, higher = longer survival
Summary of the method: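 Tumor was transplanted into mice, which were then dosed with test compound or vehicle alone. Survival was recorded for each group, and the treated figure was expressed relative to the control figure.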

[1] = dose: 100.0 mg/kg/injection, schedule: Q01DX001 (ip), vehicle: saline
[2] = dose: 100.0 mg/kg/injection, schedule: Q04DX003 (ip), vehicle: saline
[3] = dose: 200.0 mg/kg/injection, schedule: Q01DX001 (ip), vehicle: saline
[4] = dose: 200.0 mg/kg/injection, schedule: Q04DX003 (ip), vehicle: saline
[5] = dose: 400.0 mg/kg/injection, schedule: Q01DX001 (ip), vehicle: saline
[6] = dose: 400.0 mg/kg/injection, schedule: Q04DX003 (ip), vehicle: saline
[7] = dose: 50.0 mg/kg/injection, schedule: Q01DX009 (ip), vehicle: Klucel (hydroxypropylcellulose) (HPC)
[8] = dose: 100.0 mg/kg/injection, schedule: Q01DX009 (ip), vehicle: Klucel (hydroxypropylcellulose) (HPC)
[9] = dose: 100.0 mg/kg/injection, schedule: Q04DX003 (ip), vehicle: Klucel (hydroxypropylcellulose) (HPC)
[10] = dose: 200.0 mg/kg/injection, schedule: Q04DX003 (ip), vehicle: Klucel (hydroxypropylcellulose) (HPC)

Measured: T/C

Nc1nc(N)c(-c2ccc(Cl)c(Cl)c2)c(COc2ccc(CCNS(=O)(=O)c3ccc(S(=O)(=O)F)cc3)cc2)n1
inactive: dose: 25.0 mg/kg/injection, schedule: Q01DX001 (ip), vehicle: Klucel (hydroxypropylcellulose) (HPC) 96 % of control | dose: 50.0 mg/kg/injection, schedule: Q01DX001 (ip), vehicle: Klucel (hydroxypropylcellulose) (HPC) 102 % of control | dose: 100.0 mg/kg/injection, schedule: Q01DX001 (ip), vehicle: Klucel (hydroxypropylcellulose) (HPC) 96 % of control

Cc1c[nH]c(=O)[nH]1
inactive: dose: 100.0 mg/kg/injection, schedule: Q04DX002 (ip), vehicle: saline 109 % of control | dose: 200.0 mg/kg/injection, schedule: Q04DX002 (ip), vehicle: saline 106 % of control | dose: 400.0 mg/kg/injection, schedule: Q04DX002 (ip), vehicle: saline 117 % of control

COc1ccc(OC(=O)N2C=Cc3ccccc3C2C#N)cc1 (stereo not given)
inactive: [1] 93 % of control | [2] 105 % of control | [3] 97 % of control | [4] 97 % of control | [5] 91 % of control | [6] 97 % of control

O=C(Nc1ccc([N+](=O)[O-])cc1Cl)N(CCO)C1CCCCC1
inactive: dose: 100.0 mg/kg/injection, schedule: Q01DX009 (ip), vehicle: saline with Tween-80 96 % of control | dose: 100.0 mg/kg/injection, schedule: Q04DX003 (ip), vehicle: saline with Tween-80 102 % of control | dose: 200.0 mg/kg/injection, schedule: Q01DX009 (ip), vehicle: saline with Tween-80 106 % of control | dose: 200.0 mg/kg/injection, schedule: Q04DX003 (ip), vehicle: saline with Tween-80 101 % of control | dose: 400.0 mg/kg/injection, schedule: Q01DX009 (ip), vehicle: saline with Tween-80 116 % of control | dose: 400.0 mg/kg/injection, schedule: Q04DX003 (ip), vehicle: saline with Tween-80 90 % of control

CCC[CH2][Sn]1([CH2]CCC)[CH]=CCC=[C]1C
inactive: dose: 6.25 mg/kg/injection, schedule: Q01DX009 (ip), vehicle: saline with Tween-80 93 % of control | dose: 12.5 mg/kg/injection, schedule: Q01DX009 (ip), vehicle: saline with Tween-80 93 % of control | dose: 25.0 mg/kg/injection, schedule: Q01DX009 (ip), vehicle: saline with Tween-80 101 % of control and 89 % of control

CC1CC(C(C)CC(=O)O)C(=O)O1 (stereo not given)
inactive: [1] 102 % of control | [2] 111 % of control | [3] 95 % of control | [4] 108 % of control | [5] 97 % of control | [6] 101 % of control

Clc1ccc(C(Cl)(Cl)Cl)cc1Cl
inactive: [7] 110 % of control | [8] 103 % of control | [9] 106 % of control | dose: 200.0 mg/kg/injection, schedule: Q01DX009 (ip), vehicle: Klucel (hydroxypropylcellulose) (HPC) 98 % of control | [10] 106 % of control

CC1=COC(C)(C=O)CC1 (stereo not given)
inactive: dose: 222.0 mg/kg/injection, schedule: Q01DX Z (ip), vehicle: methylcellulose (MC) 94 % of control | dose: 333.0 mg/kg/injection, schedule: Q01DX Z (ip), vehicle: methylcellulose (MC) 98 % of control | dose: 500.0 mg/kg/injection, schedule: Q01DX Z (ip), vehicle: methylcellulose (MC) 88 % of control

C=CCOCC(O)CN(CCC(C)C)CCC(C)C (stereo not given)
inactive: dose: 25.0 mg/kg/injection, schedule: Q01DX009 (ip), vehicle: Klucel (hydroxypropylcellulose) (HPC) 95 % of control | [7] 97 % of control | [8] 96 % of control and 100 % of control | [9] 102 % of control | [10] 91 % of control
